# Values of other authors as cited in US8592371B2, “Aminotetrahydropyrans as dipeptidyl peptidase-IV inhibitors for the treatment or prevention of diabetes” (Merck Sharp & Dohme Corp, priority 2008, dated 2013).
# Key:
# hematopoiesis = conditions: mouse, cyclophosphamide-induced neutropenia; cited from earlier work
# DPP-4 = DPP-4 (Homo sapiens (Human), UniProt P27487); conditions: cited from earlier work
# cardiac allograft = conditions: rats; from day 7 to day 14; cited from earlier work
# DPP-4, sequence (P27487 39-766, species assumed): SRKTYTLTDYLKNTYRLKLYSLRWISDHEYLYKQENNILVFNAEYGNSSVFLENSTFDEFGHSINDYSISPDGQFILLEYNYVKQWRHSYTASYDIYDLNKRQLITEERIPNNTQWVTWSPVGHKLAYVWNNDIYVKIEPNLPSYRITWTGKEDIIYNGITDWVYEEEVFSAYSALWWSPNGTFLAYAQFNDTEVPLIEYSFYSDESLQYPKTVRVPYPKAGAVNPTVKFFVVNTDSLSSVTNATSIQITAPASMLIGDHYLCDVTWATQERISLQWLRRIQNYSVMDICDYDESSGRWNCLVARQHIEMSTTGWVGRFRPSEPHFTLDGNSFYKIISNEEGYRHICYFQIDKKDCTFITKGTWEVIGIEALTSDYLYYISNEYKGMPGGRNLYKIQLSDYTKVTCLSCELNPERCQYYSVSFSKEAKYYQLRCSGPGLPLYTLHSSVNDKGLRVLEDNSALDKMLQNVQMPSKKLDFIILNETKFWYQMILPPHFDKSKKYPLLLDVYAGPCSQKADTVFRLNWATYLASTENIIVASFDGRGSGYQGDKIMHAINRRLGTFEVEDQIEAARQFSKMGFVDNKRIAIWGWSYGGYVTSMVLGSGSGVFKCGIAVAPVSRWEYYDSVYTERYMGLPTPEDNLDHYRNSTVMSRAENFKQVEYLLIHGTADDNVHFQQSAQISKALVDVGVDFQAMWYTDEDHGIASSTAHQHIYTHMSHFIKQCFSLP
compound,measurement,setting,value
CC(C)[C@H](N)C(=O)N1CCC[C@H]1B(O)O [Val-Boro-Pro],hematopoiesis,hematopoiesis,stimulated hematopoiesis
diprotin A,degradation of GRF in plasma to GRF[3-44],DPP-4,prevented
"CC(C)N1CCC(c2ccccc2)(c2ccccc2)CC1 [Prodipine, Pro-Pro-diphenyl-phosphonate]",cardiac allograft survival,cardiac allograft,double
